Results reported in US4088778A, “Method for the treatment of hypertension” (priority 1975, dated 1978).

Columns and labels:
[1] = Clinical Experiment II: liver function test; assay type: in vivo, human patients; parameters: GOT, Average Value / GPT, Average Value / LDH, Average Value / ALP, Average Value: unit not given here
Description: 75 patients of hypertension or arteriosclerosis having subjective symptoms were tested. Some of them suffered from complications such as ischemia heart disease and cerebral thrombosis. They are detailed in Table 11.
Two capsules were administered at one time, and the administration was conducted 3 times per day after eating. The duration of the continuous administration was 4 weeks. Combined use of drugs having the same functions as those of TN (vitamin E drugs, nicotinic acid, its derivatives and peripheral vasolidators) and minor tranquilizers was prohibited.

[2] = Hypotensive effect on experimental hypertension caused by DOCA; assay type: in vivo, male wistar rats
Description: (A) Hypotensive effect on experimental hypertension caused by administration of desoxycorticosterone (hereinafter referred to as "DOCA"):
Right kidneys were removed from 6-week-old male wistar rats, and a 1% aqueous solution of sodium chloride was given as drinking water and 12.5 mg/Kg of DOCA was intramuscularly injected every week. The change of the blood pressure was examined over a period of 6 weeks.
48 rats, each having one kidney removed, were divided into 6 groups, each consisting of 8 rats, and each group was placed in a cage. With respect to each group, a gum arabic solution was administered to 2 rats as non-administered control animals. 20 mg/Kg of TN was administered once a day to each of two rats among the remaining 6 rats, and 100 mg/Kg of TN was administered once a day to each of two rats among the remaining 4 rats. 88 mg/Kg of TA was administered once a day to each of the remaining two rats. TN and TA were administered in the form of a suspension in gum arabic. The blood pressure was measured by a Shimazu type systolic pressure continuous recording apparatus detecting pulse waves of rats taken in a thermostat fixed box maintained at 30° C.

[3] = Experiment on young SHR (rats of spontaneous hypertension); assay type: in vivo, rats (7-week-old female SHR); conditions: for dead rats within 6 weeks from the start of the administration: control 5 among 11; for dead rats within 2 weeks from the start of administration: judged pneumonia, control 3
Description: Experiments were conducted by using two classes of rats of spontaneous hypertension (hereinafter referred to as "SHR"; provided by Nippon Rat K.K.) differing in the age. In the first experiment, 9-month-old chronic […] SHR (hereinafter referred to as "old SHR"), and in the second experiment, 7-week-old SHR in which hypertension was advancing (hereinafter referred to as "young SHR") was used.
(B) Experiment on Young SHR:
72 of 7-week-old female SHR (having a body weight of 130 to 175 g) were divided into 9 cages, each consisting of 8 rats. Service water was given as drinking water to rats of two cages among these 9 cages, and these rats were compared with other rats which were given a 1% aqueous solution of sodium chloride as drinking water. In each of the […] cages of rats to which the sodium chloride solution was given, no agent was administered to 2 of 8 rats, 20 mg/Kg of TN was administered to another 2 rats, 100 mg/Kg of TN was administered to still another 2 rats, and 88 mg/Kg of TA was administered to the remaining 2 rats.
After 2 weeks' feeding with the sodium chloride solution, administration was conducted once a day. Within 2 weeks from the start of administration,3 rats in the Control (non-administered) group, one rat in the 20 mg/Kg TN administered group, 3 rats in the 100 mg/Kg TN administered group, 3 rats in the 88 mg/Kg TA administered group and 4 rats in the service water given group were dead. In view of the body weight decrease and the snivel secretion and from the results of autopsy, it was judged that each of them died of pneumonia. The rats that died prior to initiation of the administration were not taken in account in evaluating the experimental results.

With Cc1c(C)c2c(c(C)c1OC(=O)c1cccnc1)CCC(C)(CCCC(C)CCCC(C)CCCC(C)C)O2 (racemic) [TN, dl-α-tocopheryl nicotinate] the “variation of GOT, GPT, LDH and ALP” value ([1]; Table 16) was “the variation was within the normal region”, the “GOT, Average Value” ([1]; after administration, N 29, S.D. ±9.51) was 24.90 and the “ALP, Average Value” ([1]; after administration, N 30, S.D. ±2.21) was 7.21. The “GPT, Average Value” ([1]; after administration, N 30, S.D. ±13.40) was 18.73, the “LDH, Average Value” ([1]; after administration, N 30, S.D. ±53.94) was 245.03 and the “ALP, Average Value” ([1]; before administration, N 34, S.D. ±2.36) was 7.37. For the same compound, the “LDH, Average Value” ([1]; before administration, N 36, S.D. ±72.42) was 251.28, the “GOT, Average Value” ([1]; before administration, N 37, S.D. ±14.92) was 28.59 and the “GPT, Average Value” ([1]; before administration, N 37, S.D. ±19.46) was 22.73. The “tendency of reduction of GOT and GPT” value ([1]; versus P group) was “greater in the TN administered group than in the P group”, the “number of rats with blood pressure elevated to 170 mm Hg or higher” value ([2]; 20 mg/kg of TN once a day, among 10 rats (control 9 among 11)) was 5 rats and the “effect on increase of the blood pressure” value ([2]; 100 mg/kg of TN) was “especially conspicuous”. For the same compound, the “number of rats with blood pressure elevated to 170 mm Hg or higher” value ([2]; 100 mg/kg of TN once a day, among 12 rats (control 9 among 11)) was 3 rats, the “hypotensive effect, overall conclusion from pharmacological tests on animals” value ([2]; DOCA rats, old SHR, young SHR) was “have a hypotensive effect” and the “dead rats within 6 weeks from the start of the administration” value ([3]; 20 mg/kg TN, among 13 rats) was 3 rats. For the same compound, the “dead rats within 2 weeks from the start of administration” value ([3]; 20 mg/kg TN) was “one”, the “dead rats within 6 weeks from the start of the administration” value ([3]; 100 mg/kg TN, among 11 rats) was 4 rats and the “dead rats within 2 weeks from the start of administration” value ([3]; 100 mg/kg TN) was 3 rats.
